Among the data in patent US10442804B2, “Compounds for the treatment of hepatitis B virus infection” (Gilead Sciences, Inc., priority 2017, dated 2019) are EC50 and CC50 values, retold here.

The term pEC50 denotes the negative decadic logarithm of the EC50, by convention in mol/L. A word on the CC50: it is the concentration giving 50% cytotoxicity.

In data set [1] the test system is HBV-infected NTCP-HepG2 cells, secreted HBsAg. Briefly: microbe, parasite or virus in culture. In kind it is cell-based, hepatitis B virus (genotype D, AD38-derived). Particulars: Hepatitis B virus, 120 h, secreted HBsAg in supernatant after 5 days; geometric mean of minimum four determinations; read-out: NTCP HBsAg EC50. The protocol:
NTCP-HepG2 Antiviral Assay for Secreted HBsAg
HepG2 cells stably expressing sodium-taurocholate cotransporting polypeptide (NTCP-HepG2) were grown in Dulbecco's Modified Eagle Medium (DMEM) without sodium pyruvate (Thermo Fisher Scientific, Waltham, Mass.) supplemented with 10% fetal bovine serum, 2 mM L-glutamine, 1% penicillin/streptomycin, and 0.25 mg/mL G-418. NTCP-HepG2 cells were infected with 4000 genome equivalent per cell of genotype D (AD38-derived) HBV in DMEM without sodium pyruvate (Thermo Fisher Scientific, Waltham, Mass.) supplemented with 2% fetal bovine serum, 2 mM L-glutamine, 1% penicillin/streptomycin, 2.5% DMSO, and 4% PEG 8000 (Promega, Madison, Wis.). After 24-hour incubation, cells were washed three times with OptiMEM (Thermo Fisher Scientific, Waltham, Mass.) and fed with fresh DMEM without sodium pyruvate (Thermo Fisher Scientific, Waltham, Mass.) supplemented with 2% fetal bovine serum, 2 mM L-glutamine, 1% penicillin/streptomycin, and 2.5% DMSO. At 4 days after infection, infected NTCP-HepG2 cells were seeded on 384-well plates pre-coated with collagen at a density of 20000 cells per well containing serially diluted compounds of the present disclosure or DMSO (0.5%) in a final volume of 80 μl of DMEM without sodium pyruvate (Thermo Fisher Scientific, Waltham, Mass.) supplemented with 2% fetal bovine serum, 2 mM L-glutamine, 1% penicillin/streptomycin, and 1% DMSO. After an incubation time of 5 days, cell culture supernatant was collected and measured for HBsAg.
Secreted HBsAg in the supernatant were measured using a multiplex chemiluminescent MSD assay (Meso Scale Discovery, Rockville, Md.) using capture and detection antibody pairs specific for HBsAg. The EC50 values were calculated from the fit of the dose-response curves to a four-parameter equation. All EC50 values represent geometric mean values of a minimum of four determinations.

A further data set can be described thus: MT-4 cytotoxicity assay. Conditions: human. In kind it is cell-based, human. The procedure:
Biological Example 2: MT-4 Cytotoxicity Assay
The MT-4 cell line (HTLV-1 transformed, human T lymphoblastoid cells) was obtained from the NIH AIDS Reagent program (Bethesda, Md.). MT-4 cells were maintained in RPMI-1640 media (Thermo Fisher Scientific, Waltham, Mass.) supplemented with 10% fetal bovine serum, 100 Units/mL penicillin, and 100 μg/mL streptomycin. For the MT-4 cytotoxicity assay, 0.4 μL of serially diluted solutions of certain compounds disclosed herein were added to 40 μL of cell maintenance media in 384-well black, solid bottom plate using a Biomek FX workstation (Beckman Coulter, Brea, Calif.). Two thousand cells in 35 μL were added to each well using a Biotek uFlow Workstation (Biotek, Winooski, Vt.). Each assay plate contained 10 μM puromycin (final concentration) and 0.5% DMSO in RPMI-1640 media as positive and negative controls, respectively. Assay plates were incubated for five days at 37° C. in an incubator set at 5% CO2 and 90% humidity. After five days, 22 μL of Cell Titer Glo reagent (Promega, Madison, Wis.) was added to the assay plates with a Biotek uFlow Workstation. Plates were subsequently placed on an Envision Plate Reader (Perkin Elmer, Waltham, Mass.) for five minutes before the luminescence signal was read. CC50 values were defined as the compound concentration that caused a 50% decrease in luminescence signal, and were calculated by non-linear regression using Pipeline Pilot software by applying a four parameter fit equation (Accelrys, San Diego, Calif.) and are reported in the following Table 1.

Setting [2] is: five days, Cell Titer Glo luminescence, read-out: MT-4 CC50.

pEC50: −log10 of the molar value. Like-named read-outs stand apart in the source and are kept apart here.

`CC1(C)CC[C@@H]2c3cc(OCC45CC(C#N)(C4)C5)c(OC(F)F)cc3-c3cc(=O)c(C(=O)O)cn3N21` [Example 104, (R)-12-((3-cyanobicyclo[1.1.1]pentan-1-yl)methoxy)-11-(difluoromethoxy)-3,3-dimethyl-8-oxo-2,3,8,13b-tetrahydro-1H-pyrido[2,1-a]pyrrolo[1,2-c]phthalazine-7-carboxylic acid]: the pEC50 in data set [1] is 8.57. Besides, the CC50 at 5 days in “MT-4 cytotoxicity assay” (setting [2]) was more than 10000 nM.
Taken in the same sequence, the figures for `CCc1cc2c(cc1OCC13CC(C#N)(C1)C3)[C@H]1CCC(C)(C)N1n1cc(C(=O)O)c(=O)cc1-2` [Example 100, (R)-12-((3-cyanobicyclo[1.1.1]pentan-1-yl)methoxy)-11-ethyl-3,3-dimethyl-8-oxo-2,3,8,13b-tetrahydro-1H-pyrido[2,1-a]pyrrolo[1,2-c]phthalazine-7-carboxylic acid] were 9.32 and 3900 nM.
For `COCCCOc1cc2c(cc1Cl)-c1cc(=O)c(C(=O)O)cn1[C@H]1[C@H]2CCC1(C)C` (single isomer, unassigned) [Example 35], in that order: 7.31 and more than 10000 nM.
Taken in the same sequence, the figures for `COCCCOc1cc2c(cc1Cl)-c1cc(=O)c(C(=O)O)cn1N1[C@@H]2CC[C@@H]1C` (single isomer, unassigned) [Example 10] were 8.24 and more than 10000 nM.
For `COCCCOc1cc2c(cc1OC)-c1cc(=O)c(C(=O)O)cn1N1[C@H]2CCCC1(C)C` (single isomer, unassigned) [Example 53], the pEC50 in data set [1] is 8.04. The CC50 at 5 days in the data set “MT-4 cytotoxicity assay” (setting [2]) came out at 9700 nM.
With `COc1cc2c(cc1OCC1COC1)[C@H]1CCC(C)(C)N1n1cc(C(=O)O)c(=O)cc1-2` [Example 16, (R)-11-methoxy-3,3-dimethyl-12-(oxetan-3-ylmethoxy)-8-oxo-2,3,8,13b-tetrahydro-1H-pyrido[2,1-a]pyrrolo[1,2-c]phthalazine-7-carboxylic acid], in data set [1], the pEC50 was 8.11. Further, in the data set “MT-4 cytotoxicity assay” (setting [2]), the CC50 at 5 days is more than 10000 nM.
Consider `COCCCOc1cc2c(cc1C1CC1)-c1cc(=O)c(C(=O)O)cn1N1[C@@H]2CCC1(C)C` [Example 28, (R)-11-cyclopropyl-12-(3-methoxypropoxy)-3,3-dimethyl-8-oxo-2,3,8,13b-tetrahydro-1H-pyrido[2,1-a]pyrrolo[1,2-c]phthalazine-7-carboxylic acid], for which, in data set [1], the pEC50 was 9.11. For the same compound, in the data set “MT-4 cytotoxicity assay” (setting [2]), the CC50 at 5 days was found to be 8700 nM.
For `COCc1cc2c(cc1OCC13CC(C#N)(C1)C3)[C@H]1CCC3(CC3)N1n1cc(C(=O)O)c(=O)cc1-2` [Compound 107, (R)-12′-((3-cyanobicyclo[1.1.1]pentan-1-yl)methoxy)-11′-(methoxymethyl)-8′-oxo-1′,2′,8′,13b′-tetrahydrospiro[cyclopropane-1,3′-pyrido[2,1-a]pyrrolo[1,2-c]phthalazine]-7′-carboxylic acid], the pEC50 in data set [1] is 8.23. For the same compound, the CC50 at 5 days in the data set “MT-4 cytotoxicity assay” (MT-4 CC50) was found to be 7800 nM.
`COCCCOc1cc2c(cc1Cl)-c1cc(=O)c(C(=O)O)cn1N1CCC[C@H]21` (single isomer, unassigned) [Example 2]: the pEC50 in data set [1] was 6.96. In the data set “MT-4 cytotoxicity assay” (setting [2]), the CC50 at 5 days was found to be 3900 nM.
For `COCCCOc1c(OC)cc2c(c1F)[C@H]1CCC(C)(C)N1n1cc(C(=O)O)c(=O)cc1-2` [Example 67, (R)-13-fluoro-11-methoxy-12-(3-methoxypropoxy)-3,3-dimethyl-8-oxo-2,3,8,13b-tetrahydro-1H-pyrido[2,1-a]pyrrolo[1,2-c]phthalazine-7-carboxylic acid], in that order: 8.28 and more than 10000 nM.
In the case of `COCCCOc1cc2c(cc1COC)-c1cc(=O)c(C(=O)O)cn1N1[C@@H]2CCC12CC2` [Example 87, (R)-11′-(methoxymethyl)-12′-(3-methoxypropoxy)-8′-oxo-1′,2′,8′,13b′-tetrahydrospiro[cyclopropane-1,3′-pyrido[2,1-a]pyrrolo[1,2-c]phthalazine]-7′-carboxylic acid], the pEC50 in data set [1] is 8.38. In “MT-4 cytotoxicity assay” (MT-4 CC50), this compound gave a CC50 at 5 days of more than 10000 nM.
For `COCCCOc1cc2c(cc1Cl)-c1cc(=O)c(C(=O)O)cn1N1[C@@H]2CCCC1(C)C` (single isomer, unassigned) [Example 12], the pEC50 in data set [1] is 8.60. For the same compound, the CC50 at 5 days in the data set “MT-4 cytotoxicity assay” (setting [2]) was 8800 nM.
For `CC1(C)CC[C@@H]2c3cc(OCCCOC4COC4)c(Cl)cc3-c3cc(=O)c(C(=O)O)cn3N21` [Example 98, (R)-11-chloro-3,3-dimethyl-12-(3-(oxetan-3-yloxy)propoxy)-8-oxo-2,3,8,13b-tetrahydro-1H-pyrido[2,1-a]pyrrolo[1,2-c]phthalazine-7-carboxylic acid], in that order: 8.66 and more than 10000 nM.
Taken in the same sequence, the figures for `COCCCOc1cc2c(cc1OC(C)(C)C)-c1cc(=O)c(C(=O)O)cn1N1[C@@H]2CCC1(C)C` [Example 25, (R)-11-(tert-butoxy)-12-(3-methoxypropoxy)-3,3-dimethyl-8-oxo-2,3,8,13b-tetrahydro-1H-pyrido[2,1-a]pyrrolo[1,2-c]phthalazine-7-carboxylic acid] were 6.80 and more than 10000 nM.
Taken in the same sequence, the figures for `COCCCOc1cc2c(cc1OC(F)(F)F)-c1cc(=O)c(C(=O)O)cn1N1[C@@H]2CCC1(C)C` [Example 79, (R)-12-(3-methoxypropoxy)-3,3-dimethyl-8-oxo-11-(trifluoromethoxy)-2,3,8,13b-tetrahydro-1H-pyrido[2,1-a]pyrrolo[1,2-c]phthalazine-7-carboxylic acid] were 8.96 and more than 10000 nM.
`COCCCOc1cc2c(cc1OC)-c1cc(=O)c(C(=O)O)cn1N1[C@H]2CCC1(C)C` [Example 15, (S)-11-methoxy-12-(3-methoxypropoxy)-3,3-dimethyl-8-oxo-2,3,8,13b-tetrahydro-1H-pyrido[2,1-a]pyrrolo[1,2-c]phthalazine-7-carboxylic acid]: the pEC50 in data set [1] was 6.46. Also, the CC50 at 5 days in the data set “MT-4 cytotoxicity assay” (setting [2]) was more than 10000 nM.
With `COc1cc2c(cc1OCCC(C)(C)OC)[C@H]1CCC(C)(C)N1n1cc(C(=O)O)c(=O)cc1-2` [Example 64, (R)-11-methoxy-12-(3-methoxy-3-methylbutoxy)-3,3-dimethyl-8-oxo-2,3,8,13b-tetrahydro-1H-pyrido[2,1-a]pyrrolo[1,2-c]phthalazine-7-carboxylic acid], the pEC50 in data set [1] was 9.08. Besides, the CC50 at 5 days in the data set “MT-4 cytotoxicity assay” (setting [2]) is more than 10000 nM.
For `COCc1cc2c(cc1OCCCOC(=O)NC1(C(F)F)CC1)[C@H]1CCC(C)(C)N1n1cc(C(=O)O)c(=O)cc1-2` [Example 88, (R)-12-(3-(((1-(Difluoromethyl)cyclopropyl)carbamoyl)oxy)propoxy)-11-(methoxymethyl)-3,3-dimethyl-8-oxo-2,3,8,13b-tetrahydro-H-pyrido[2,1-a]pyrrolo[1,2-c]phthalazine-7-carboxylic acid], in that order: 8.27 and more than 10000 nM.
Taken in the same sequence, the figures for `COCCCOc1cc2c(cc1Cl)-c1cc(=O)c(C(=O)O)cn1N1C2CCCC1(C)C` (stereo not shown) [Example 11, 13-chloro-12-(3-methoxypropoxy)-7,7-dimethyl-2-oxo-2,7,8,9,10,10a-hexahydrodipyrido[2,1-a:1′,2′-c]phthalazine-3-carboxylic acid] were 8.37 and more than 10000 nM.
For `COC(C)(C)C#Cc1cc2c(cc1OC(F)(F)F)-c1cc(=O)c(C(=O)O)cn1N1[C@@H]2CCC1(C)C` [Example 90, (R)-12-(3-methoxy-3-methylbut-1-yn-1-yl)-3,3-dimethyl-8-oxo-11-(trifluoromethoxy)-2,3,8,13b-tetrahydro-1H-pyrido[2,1-a]pyrrolo[1,2-c]phthalazine-7-carboxylic acid], in that order: 8.30 and more than 10000 nM.
